Assay results from PubChem BioAssay AID248 (DTP/NCI, 2004).
Values joined by “and” are separate entries in the source; they are usually repeats but may differ in a detail not shown here. Identical values can stand only once. Inconclusive results and toxic doses are left out. Rule as the data show it: active = T/C of 150% or more; inactive = T/C below 125%.

System: L1210 leukemia ip in BDF1 mice, survival T/C
Assay: NCI In Vivo Anticancer Drug Screen. Data for tumor model L1210 Leukemia (intraperitoneal) in B6D2F1 (BDF1) mice
Conditions: endpoint: mean survival time, higher = longer survival
Outline: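 Antitumor effect is assessed in tumor-bearing animals. Survival in the compound arm is compared with a vehicle-dosed control arm and expressed as their quotient.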

[1] = dose: 50.0 mg/kg/injection, schedule: Q01DX001 (ip), vehicle: saline
[2] = dose: 25.0 mg/kg/injection, schedule: Q01DX009 (ip), vehicle: saline with Tween-80
[3] = dose: 50.0 mg/kg/injection, schedule: Q01DX009 (ip), vehicle: saline with Tween-80
[4] = dose: 100.0 mg/kg/injection, schedule: Q04DX002 (ip), vehicle: saline with Tween-80
[5] = dose: 50.0 mg/kg/injection, schedule: Q04DX003 (ip), vehicle: Klucel (hydroxypropylcellulose) (HPC)
[6] = dose: 100.0 mg/kg/injection, schedule: Q04DX003 (ip), vehicle: Klucel (hydroxypropylcellulose) (HPC)
[7] = dose: 100.0 mg/kg/injection, schedule: Q01DX001 (ip), vehicle: saline
[8] = dose: 200.0 mg/kg/injection, schedule: Q01DX001 (ip), vehicle: saline
[9] = dose: 400.0 mg/kg/injection, schedule: Q01DX001 (ip), vehicle: saline
[10] = dose: 100.0 mg/kg/injection, schedule: Q01DX009 (ip), vehicle: Klucel (hydroxypropylcellulose) (HPC)
[11] = dose: 200.0 mg/kg/injection, schedule: Q01DX009 (ip), vehicle: Klucel (hydroxypropylcellulose) (HPC)

Measured: T/C

O=C(COc1ccc(Cl)c(Cl)c1)NCc1cc[n+](Cc2ccc(S(=O)(=O)F)cc2)cc1
inactive: dose: 100.0 mg/kg/injection, schedule: Q01DX001 (ip), vehicle: Klucel (hydroxypropylcellulose) (HPC) 95 % of control | dose: 200.0 mg/kg/injection, schedule: Q01DX001 (ip), vehicle: Klucel (hydroxypropylcellulose) (HPC) 95 % of control

Nc1ccc(O)c2ncccc12
inactive: dose: 6.25 mg/kg/injection, schedule: Q01DX009 (ip), vehicle: saline 95 % of control | dose: 12.5 mg/kg/injection, schedule: Q01DX009 (ip), vehicle: saline 92 % of control | [1] 98 % of control

Nc1ccc(CCCCc2ccccc2)cc1
inactive: [2] 96 % of control | [3] 89 % of control

O=C(Nc1cccc(Cl)c1)Oc1c(Cl)cc(S(=O)(=O)F)cc1Cl
inactive: [2] 97 % of control | dose: 25.0 mg/kg/injection, schedule: Q04DX002 (ip), vehicle: saline with Tween-80 101 % of control | [3] 93 % of control | dose: 50.0 mg/kg/injection, schedule: Q04DX002 (ip), vehicle: saline with Tween-80 93 % of control | dose: 100.0 mg/kg/injection, schedule: Q01DX009 (ip), vehicle: saline with Tween-80 100 % of control | [4] 96 % of control and 90 % of control

Nc1cc(F)c2c(c1)C(=O)c1cc(F)ccc1-2
inactive: dose: 50.0 mg/kg/injection, schedule: Q01DX001 (ip), vehicle: carboxymethylcellulose (CMC) 93 % of control | [5] 96 % of control | dose: 100.0 mg/kg/injection, schedule: Q01DX001 (ip), vehicle: carboxymethylcellulose (CMC) 95 % of control | [6] 96 % of control | dose: 200.0 mg/kg/injection, schedule: Q01DX001 (ip), vehicle: carboxymethylcellulose (CMC) 95 % of control | dose: 200.0 mg/kg/injection, schedule: Q04DX003 (ip), vehicle: Klucel (hydroxypropylcellulose) (HPC) 98 % of control | dose: 400.0 mg/kg/injection, schedule: Q01DX001 (ip), vehicle: carboxymethylcellulose (CMC) 95 % of control

NC(=O)NN=C(CS)CS
inactive: dose: 0.5 mg/kg/injection, schedule: Q01DX015 (ip), vehicle: carboxymethylcellulose (CMC) 93 % of control | dose: 1.0 mg/kg/injection, schedule: Q01DX015 (ip), vehicle: carboxymethylcellulose (CMC) 98 % of control | dose: 2.0 mg/kg/injection, schedule: Q01DX015 (ip), vehicle: carboxymethylcellulose (CMC) 96 % of control | dose: 4.0 mg/kg/injection, schedule: Q01DX015 (ip), vehicle: carboxymethylcellulose (CMC) 98 % of control and 104 % of control | dose: 5.0 mg/kg/injection, schedule: Q01DX001 (ip), vehicle: other 97 % of control | dose: 8.0 mg/kg/injection, schedule: Q01DX015 (ip), vehicle: carboxymethylcellulose (CMC) 98 % of control | dose: 10.0 mg/kg/injection, schedule: Q01DX001 (ip), vehicle: other 97 % of control | dose: 16.0 mg/kg/injection, schedule: Q01DX015 (ip), vehicle: carboxymethylcellulose (CMC) 98 % of control | dose: 20.0 mg/kg/injection, schedule: Q01DX001 (ip), vehicle: other 94 % of control | dose: 25.0 mg/kg/injection, schedule: Q04DX003 (ip), vehicle: Klucel (hydroxypropylcellulose) (HPC) 104 % of control | dose: 32.0 mg/kg/injection, schedule: Q01DX015 (ip), vehicle: carboxymethylcellulose (CMC) 98 % of control | dose: 40.0 mg/kg/injection, schedule: Q01DX001 (ip), vehicle: other 97 % of control | [5] 101 % of control | dose: 80.0 mg/kg/injection, schedule: Q01DX001 (ip), vehicle: other 95 % of control | [6] 101 % of control

CN1CCC(=C(C#N)c2ccccc2)CC1
inactive: dose: 25.0 mg/kg/injection, schedule: Q04DX003 (ip), vehicle: saline 97 % of control | dose: 50.0 mg/kg/injection, schedule: Q04DX003 (ip), vehicle: saline 97 % of control

COc1ccc(CN2CCCN(Cc3ccc(OC)cc3OC)C2c2cc(Cl)ccc2O)c(OC)c1
inactive: [1] 95 % of control | [7] 86 % of control | [8] 95 % of control | [9] 86 % of control

Oc1ccccc1-n1c(-c2ccccc2)ccc1-c1ccccc1
inactive: [1] 90 % of control | [7] 98 % of control | [8] 102 % of control | [9] 98 % of control

C#CC(C)(C)C(C(=O)OCC)C(=O)OCC
inactive: dose: 75.0 mg/kg/injection, schedule: Q01DX009 (ip), vehicle: Klucel (hydroxypropylcellulose) (HPC) 102 % of control | dose: 150.0 mg/kg/injection, schedule: Q01DX009 (ip), vehicle: Klucel (hydroxypropylcellulose) (HPC) 100 % of control | dose: 300.0 mg/kg/injection, schedule: Q01DX009 (ip), vehicle: Klucel (hydroxypropylcellulose) (HPC) 97 % of control

CCOC(=O)c1cnc2c(cnn2CC)c1NCC(C)C
inactive: dose: 50.0 mg/kg/injection, schedule: Q01DX009 (ip), vehicle: Klucel (hydroxypropylcellulose) (HPC) 100 % of control | [10] 100 % of control | [11] 103 % of control

CCOC(=O)C(NC(C)=O)C(N)=S (stereo unspecified)
inactive: [7] 99 % of control | dose: 100.0 mg/kg/injection, schedule: Q01DX009 (ip), vehicle: saline 108 % of control | dose: 100.0 mg/kg/injection, schedule: Q04DX003 (ip), vehicle: saline 102 % of control | [8] 93 % of control | dose: 200.0 mg/kg/injection, schedule: Q01DX009 (ip), vehicle: saline 97 % of control | dose: 200.0 mg/kg/injection, schedule: Q04DX003 (ip), vehicle: saline 96 % of control | [9] 94 % of control | dose: 400.0 mg/kg/injection, schedule: Q01DX009 (ip), vehicle: saline 105 % of control | dose: 400.0 mg/kg/injection, schedule: Q04DX003 (ip), vehicle: saline 106 % of control

N#Cc1c(C#N)c(N)n(N)c1N
inactive: dose: 200.0 mg/kg/injection, schedule: Q04DX002 (ip), vehicle: Klucel (hydroxypropylcellulose) (HPC) 114 % of control

C[N+](C)(C)C1CC2CC1C2 (stereo unspecified)
inactive: dose: 75.0 mg/kg/injection, schedule: Q01DX001 (ip), vehicle: saline 97 % of control

CC1(C)N=C(N)N=C(N)N1c1ccc(CNC(=O)Nc2ccc(S(=O)(=O)F)cc2)c(Cl)c1
inactive: dose: 45.0 mg/kg/injection, schedule: Q01DX009 (ip), vehicle: saline 111 % of control | dose: 67.0 mg/kg/injection, schedule: Q01DX009 (ip), vehicle: saline 120 % of control

Cc1ccc(/C(C#N)=C/c2cccc([N+](=O)[O-])c2)cc1
inactive: [4] 95 % of control | dose: 200.0 mg/kg/injection, schedule: Q04DX002 (ip), vehicle: saline with Tween-80 88 % of control | dose: 400.0 mg/kg/injection, schedule: Q04DX002 (ip), vehicle: saline with Tween-80 98 % of control

CC(=O)N(C)c1ccc(NC(=O)/C=C/c2ccccc2)cc1
inactive: [10] 95 % of control | [11] 101 % of control | dose: 400.0 mg/kg/injection, schedule: Q01DX009 (ip), vehicle: Klucel (hydroxypropylcellulose) (HPC) 105 % of control

O=C(O)c1cc(-c2ccccc2)nc2c([N+](=O)[O-])cccc12
inactive: dose: 75.0 mg/kg/injection, schedule: Q01DX001 (ip), vehicle: acetone 95 % of control | dose: 150.0 mg/kg/injection, schedule: Q01DX001 (ip), vehicle: acetone 92 % of control | dose: 300.0 mg/kg/injection, schedule: Q01DX001 (ip), vehicle: acetone 108 % of control

c1ccc([Si](c2ccccc2)(c2ccccc2)c2cccs2)cc1
inactive: dose: 100.0 mg/kg/injection, schedule: Q04DX003 (ip), vehicle: saline with Tween-80 93 % of control | dose: 200.0 mg/kg/injection, schedule: Q04DX003 (ip), vehicle: saline with Tween-80 90 % of control | dose: 400.0 mg/kg/injection, schedule: Q04DX003 (ip), vehicle: saline with Tween-80 88 % of control
